No end group written: not given here.
Key:
Test in all cases: biochemical
Type in all cases: binding
HLA-A*0301 = HLA-A*0301 (Homo sapiens, UniProt P04439)
HLA-A*1101 = HLA-A*1101 (Homo sapiens, UniProt P04439, A114D/D185E/E176A/F33Y/L180Q/S129P/T187R)
HLA-A*3101 = HLA-A*3101 (Homo sapiens, UniProt P04439, A270S/D185E/E176V/E277Q/F33T/G231S/G80R/H175R/I121M/I218V/I322F/K168Q/L300P/L318F/M331R/P217A/Q94H/R138Q/T323A/T345S/T97I/V358M)
HLA-A*3301 = HLA-A*3301 (Homo sapiens, UniProt P04439, A270S/D185E/E176V/E277Q/E87N/F33T/G231S/H175R/I121M/I218V/I322F/K168Q/K210R/L300P/L318F/M331R/P217A/Q86R/Q94H/R138Q/T323A/T345S/T97I/V358M/Y195H)
HLA-A*6801 = HLA-A*6801 (Homo sapiens, UniProt P04439, A269V/D185E/E176V/E277Q/E87N/F33Y/G231S/I121M/I166T/I218V/L180W/L300P/L318F/N151K/P208A/P217A/Q86R/R169H/T345S)

| Sequence | IC50 (HLA-A*0301) | IC50 (HLA-A*1101) | IC50 (HLA-A*3101) | IC50 (HLA-A*3301) | IC50 (HLA-A*6801) |
| --- | --- | --- | --- | --- | --- |
| GVNHQHLPAK | 42 nM | 11 nM | 3340 nM | 76200 nM | 9350 nM |
| GVSGPGPGK | 13 nM | 5.8 nM | > 11200 nM | > 112000 nM | 209 nM |
| GVSHAQLPAK | 42 nM | 12 nM | 36000 nM | > 74900 nM | 20600 nM |
| KFSEFRWYRY | 4750 nM | 1590 nM | 34 nM | 856 nM | 12800 nM |
| KFYSKISEYK | 7.6 nM | 674 nM | 27 nM | 329 nM | 208 nM |
| KISEYRHYNK | 29 nM | 18 nM | 397 nM | 24800 nM | 15600 nM |
| KISEYRHYNR | 58 nM | 140 nM | 17 nM | 161 nM | 1580 nM |
| KMFLQLAK | 45 nM | 62 nM | 677 nM | > 126000 nM | 8380 nM |
| KQENWYSLKK | 608 nM | 178 nM | 6330 nM | > 136000 nM | 4790 nM |
| KQLCDLLIK | 226 nM | 65 nM | 340 nM | 46400 nM | 11900 nM |
| KQRFHNIRGK | 55 nM | 1950 nM | 573 nM | 35200 nM | 22900 nM |
| KSMLKELIK | 189 nM | 151 nM | 450 nM | > 46500 nM | > 37000 nM |
| KTLGISYGR | 53 nM | 9.8 nM | 21 nM | 502 nM | 36 nM |
| KTLGISYGRK | 36 nM | 79 nM | 841 nM | 42400 nM | 1630 nM |
| KVGPGGYPRR | 2270 nM | 487 nM | 250 nM | 7900 nM | 721 nM |
| KVGPGGYPRRK | 70 nM | 87 nM | 775 nM | > 5060 nM | 921 nM |
| KVGSLQYLK | 482 nM | 70 nM | 2100 nM | > 43700 nM | 4200 nM |
| KVRFHNIRGR | 39 nM | 8630 nM | 27 nM | 4500 nM | 3980 nM |
| KVSEFRWYRR | 266 nM | 16 nM | 2.8 nM | 159 nM | 30 nM |
| LLFYSKVRKYR | 28 nM | 94 nM | 7 nM | 11 nM | 15 nM |
| LTFYSKVRK | 3.8 nM | 8 nM | 87 nM | 3380 nM | 13 nM |
| LTISYGRK | 988 nM | 708 nM | 27100 nM | 38200 nM | 482 nM |
| LTISYGRKK | 584 nM | 69 nM | 13900 nM | 59700 nM | 63 nM |
| LVFSNVLCFR | 120 nM | 19 nM | 33 nM | 19 nM | 7.7 nM |
| LVTDLRIVYR | 3870 nM | 648 nM | 20 nM | 150 nM | 6.8 nM |
| NIMGRWTGK | 52 nM | 54 nM | 3270 nM | 86 nM | 173 nM |
| NSVYGETLER | 150 nM | 25 nM | 163 nM | 1330 nM | 18 nM |

| Sequence | IC50 (HLA-A*0301) | IC50 (HLA-A*1101) | IC50 (HLA-A*3101) | IC50 (HLA-A*3301) | IC50 (HLA-A*6801) |
| --- | --- | --- | --- | --- | --- |
| NTLEQTVKR | 20400 nM | 1150 nM | 2270 nM | 18 nM | 8.6 nM |
| NVMGRWTGR | 3880 nM | 794 nM | 40 nM | 18 nM | 20 nM |
| PVLTSLFNK | 1950 nM | 25 nM | 5110 nM | 18300 nM | 29900 nM |
| PVRPQVPLR | > 10900 nM | 16100 nM | 332 nM | 3440 nM | 7010 nM |
| QMAVGPGPGK | 33 nM | 16 nM | 5960 nM | 86700 nM | 22 nM |
| QMMNVNLQK | 20 nM | 7 nM | 504 nM | 6650 nM | 243 nM |
| QQNQESKIMK | 3470 nM | 77 nM | 28100 nM | > 17400 nM | 21300 nM |
| RFHSIAGQYK | 17 nM | 43 nM | 1.3 nM | 629 nM | 83 nM |
| RFLSKISEYY | 1700 nM | 25500 nM | 14 nM | 41100 nM | 4000 nM |
| RLFEESLGIR | 64 nM | 1100 nM | 297 nM | 788 nM | 409 nM |
| RLLSKISEYR | 5.2 nM | 662 nM | 7.7 nM | 108 nM | 21 nM |
| RLYSKVSEFR | 6.4 nM | 131 nM | 24 nM | 690 nM | 73 nM |
| RVHFASPLH | 12 nM | 60 nM | 572 nM | > 123000 nM | 7620 nM |
| RVHSIAGQYR | 31 nM | 34 nM | 7.6 nM | 812 nM | 28 nM |
| RVRRRRWRAR | 2440 nM | > 16800 nM | 265 nM | 3760 nM | > 36900 nM |
| SFYGKTLEER | 642 nM | 205 nM | 17 nM | 66 nM | 42 nM |
| SFYGTTLEK | 34 nM | 15 nM | 517 nM | 3380 nM | 498 nM |
| SLGPGPGTK | 7.8 nM | 5.8 nM | 4390 nM | 152000 nM | 3520 nM |
| SLYGKTLEEK | 7.9 nM | 6.8 nM | 1040 nM | 6520 nM | 29 nM |
| SSFDIKSEVK | 1900 nM | 19 nM | 19800 nM | 70300 nM | 31 nM |
| STGPGPGVVRR | 18700 nM | 367 nM | 95 nM | 5980 nM | 5.8 nM |
| STLGPGPGVRR | 892 nM | 19 nM | 42 nM | 670 nM | 3.8 nM |
| STLPGPGPGRR | 297 nM | 19 nM | 61 nM | 1890 nM | 25 nM |
| SVCRSSRTR | 323 nM | 97 nM | 249 nM | 547 nM | 17 nM |
| SVYGETLER | 44 nM | 11 nM | 235 nM | 160 nM | 17 nM |
| TFLEKLTNK | 6840 nM | 815 nM | 451 nM | 148 nM | 918 nM |

Source: patent publication US20060079453A1, “Hla binding peptides and their uses” (priority 2002, published 2006)
